Results from PubChem BioAssay (NCI).
Values joined by “and” are separate entries in the source; they are usually repeats but may differ in a detail not shown here. Equal entries are not always repeated.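 1) Cells in 96-well plates. 2) Compound, 48 h, 5 concentrations. 3) Linear interpolation between surrounding doses. 4) Unreached endpoint = highest concentration. GI50 marks 50% less growth. TGI denotes the concentration required for complete inhibition of growth.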

Assays:
Assay in all cases: NCI tumour cell line growth inhibition, 48 h
[1] = tested on: 786-0 renal
[2] = tested on: A498 renal
[3] = tested on: A549 NSCLC
[4] = tested on: ACHN renal
[5] = tested on: CAKI-1 renal
[6] = tested on: CCRF-CEM leukemia
[7] = tested on: COLO 205 colon
[8] = tested on: DMS 114 small cell lung
[9] = tested on: DMS 273 small cell lung
[10] = tested on: EKVX NSCLC
[11] = tested on: HCC-2998 colon
[12] = tested on: HCT-15 colon
[13] = tested on: HL-60(TB) leukemia
[14] = tested on: HOP-62 NSCLC
[15] = tested on: HOP-92 NSCLC
[16] = tested on: HT29 colon
[17] = tested on: IGROV1 ovarian
[18] = tested on: K-562 leukemia
[19] = tested on: KM12 colon
[20] = tested on: KM20L2 colon
[21] = tested on: LOX IMVI melanoma
[22] = tested on: LXFL 529 NSCLC
[23] = tested on: M14 melanoma
[24] = tested on: M19-MEL melanoma
[25] = tested on: MALME-3M melanoma
[26] = tested on: MOLT-4 leukemia
[27] = tested on: NCI-H226 lung
[28] = tested on: NCI-H23 lung
[29] = tested on: NCI-H460 lung
[30] = tested on: NCI-H522 lung
[31] = tested on: OVCAR-3 ovarian
[32] = tested on: OVCAR-4 ovarian
[33] = tested on: OVCAR-5 ovarian
[34] = tested on: OVCAR-8 ovarian
[35] = tested on: RPMI-8226 leukemia
[36] = tested on: RXF 393 renal
[37] = tested on: RXF-631 renal
[38] = tested on: SF-268 CNS
[39] = tested on: SF-295 CNS
[40] = tested on: SK-MEL-2 melanoma
[41] = tested on: SK-MEL-28 melanoma
[42] = tested on: SK-MEL-5 melanoma
[43] = tested on: SK-OV-3 ovarian
[44] = tested on: SN12C renal
[45] = tested on: SNB-19 CNS
[46] = tested on: SNB-75 CNS
[47] = tested on: SW-620 colon
[48] = tested on: TK-10 renal
[49] = tested on: U251 CNS
[50] = tested on: UACC-62 melanoma
[51] = tested on: UO-31 renal
[52] = tested on: XF 498 CNS
[53] = tested on: BT-549 breast
[54] = tested on: HOP-18 NSCLC
[55] = tested on: MDA-MB-231 breast
[56] = tested on: MDA-MB-435
[57] = tested on: MDA-N
[58] = tested on: P388/ADR leukemia
[59] = tested on: SR leukemia
[60] = tested on: T-47D breast

Question: With `Nc1nc2c(ncn2Cc2ccccc2CCO)c(=O)[nH]1` as the molecule, how does the TGI [1] read?
Answer: The TGI was greater than 100 µM.

Question: What about the TGI [2] of the same molecule?
Answer: Its TGI is greater than 100 µM.

Question: What about the TGI [3] of the same molecule?
Answer: Its TGI is greater than 100 µM.

Question: And the TGI [4]?
Answer: Its TGI is greater than 100 µM.

Question: And the TGI [5]?
Answer: The TGI was greater than 100 µM.

Question: What about the TGI [6] of the same molecule?
Answer: Its TGI is greater than 100 µM.

Question: What about the TGI [7] of the same molecule?
Answer: The TGI was greater than 100 µM.

Question: What about the TGI [8] of the same molecule?
Answer: Its TGI is greater than 100 µM.

Question: And the TGI [9]?
Answer: Its TGI is greater than 100 µM.

Question: And the TGI [10]?
Answer: The TGI was greater than 100 µM.

Question: What about the TGI [11] of the same molecule?
Answer: Its TGI is greater than 100 µM.

Question: What about the TGI [12] of the same molecule?
Answer: The TGI was greater than 100 µM.

Question: What about the TGI [13] of the same molecule?
Answer: The TGI was greater than 100 µM.

Question: And the TGI [14]?
Answer: Its TGI is greater than 100 µM.

Question: And the TGI [15]?
Answer: The TGI was greater than 100 µM.

Question: What about the TGI [16] of the same molecule?
Answer: The TGI was greater than 100 µM.

Question: What about the TGI [17] of the same molecule?
Answer: Its TGI is greater than 100 µM.

Question: And the TGI [18]?
Answer: Its TGI is greater than 100 µM.

Question: What about the TGI [19] of the same molecule?
Answer: Its TGI is greater than 100 µM.

Question: What about the TGI [20] of the same molecule?
Answer: The TGI was greater than 100 µM.

Question: And the TGI [21]?
Answer: The TGI was greater than 100 µM.

Question: What about the TGI [22] of the same molecule?
Answer: Its TGI is greater than 100 µM.

Question: And the TGI [23]?
Answer: Its TGI is greater than 100 µM.

Question: And the TGI [24]?
Answer: Its TGI is greater than 100 µM.

Question: And the TGI [25]?
Answer: Its TGI is greater than 100 µM.

Question: What about the TGI [26] of the same molecule?
Answer: Its TGI is greater than 100 µM.

Question: What about the TGI [27] of the same molecule?
Answer: The TGI was greater than 100 µM.

Question: What about the TGI [28] of the same molecule?
Answer: Its TGI is greater than 100 µM.

Question: What about the TGI [29] of the same molecule?
Answer: Its TGI is greater than 100 µM.

Question: What about the TGI [30] of the same molecule?
Answer: The TGI was greater than 100 µM.

Question: And the TGI [31]?
Answer: Its TGI is greater than 100 µM.

Question: What about the TGI [32] of the same molecule?
Answer: Its TGI is greater than 100 µM.

Question: And the TGI [33]?
Answer: The TGI was greater than 100 µM.

Question: What about the TGI [34] of the same molecule?
Answer: Its TGI is greater than 100 µM.

Question: What about the TGI [35] of the same molecule?
Answer: The TGI was greater than 100 µM.

Question: And the TGI [36]?
Answer: The TGI was greater than 100 µM.

Question: And the TGI [37]?
Answer: Its TGI is greater than 100 µM.

Question: And the TGI [38]?
Answer: Its TGI is greater than 100 µM.

Question: What about the TGI [39] of the same molecule?
Answer: Its TGI is greater than 100 µM.

Question: What about the TGI [40] of the same molecule?
Answer: Its TGI is greater than 100 µM.

Question: And the TGI [41]?
Answer: Its TGI is greater than 100 µM.

Question: And the TGI [42]?
Answer: Its TGI is greater than 100 µM.

Question: What about the TGI [43] of the same molecule?
Answer: Its TGI is greater than 100 µM.

Question: What about the TGI [44] of the same molecule?
Answer: The TGI was greater than 100 µM.

Question: What about the TGI [45] of the same molecule?
Answer: The TGI was greater than 100 µM.

Question: And the TGI [46]?
Answer: The TGI was greater than 100 µM.

Question: And the TGI [47]?
Answer: The TGI was greater than 100 µM.

Question: And the TGI [48]?
Answer: Its TGI is greater than 100 µM.

Question: And the TGI [49]?
Answer: Its TGI is greater than 100 µM.

Question: And the TGI [50]?
Answer: Its TGI is greater than 100 µM.

Question: What about the TGI [51] of the same molecule?
Answer: Its TGI is greater than 100 µM.

Question: What about the TGI [52] of the same molecule?
Answer: Its TGI is greater than 100 µM.

Question: For `COC1C(O)CC(OC2CC(Oc3cc4cc5c(c(O)c4c(O)c3C)C(=O)[C@@H](OC3CC(OC4CC(OC6CC(C)(O)C(OC(C)=O)C(C)O6)C(O)C(C)O4)C(O)C(C)O3)[C@H]([C@H](OC)C(=O)[C@@H](O)[C@@H](C)O)C5)OC(C)C2OC(C)=O)OC1C` (stereo not given in full), which GI50 [1] is on record?
Answer: Its GI50 is 0.000213 µM.

Question: What about the TGI [53] of the same molecule?
Answer: The TGI was 0.0597 nM.

Question: And the GI50 [8]?
Answer: The GI50 was 0.00328 µM.

Question: And the GI50 [54]?
Answer: Its GI50 is 0.0164 nM.

Question: What about the GI50 [23] of the same molecule?
Answer: Its GI50 is 0.0189 nM.

Question: What about the TGI [23] of the same molecule?
Answer: The TGI was 0.000105 µM.

Question: What about the GI50 [55] of the same molecule?
Answer: The GI50 was 0.0101 µM.

Question: What about the TGI [55] of the same molecule?
Answer: Its TGI is 0.000467 µM and < 0.0234 µM.

Question: What about the TGI [56] of the same molecule?
Answer: Its TGI is 0.000167 µM.

Question: What about the TGI [57] of the same molecule?
Answer: The TGI was 0.000192 µM and < 0.0107 µM.

Question: What about the GI50 [58] of the same molecule?
Answer: The GI50 was 0.106 µM.

Question: What about the TGI [58] of the same molecule?
Answer: Its TGI is 9.49 µM and 8.82 µM.

Question: What about the GI50 [59] of the same molecule?
Answer: Its GI50 is 0.0252 nM.

Question: What about the TGI [59] of the same molecule?
Answer: The TGI was 0.000152 µM.

Question: What about the GI50 [60] of the same molecule?
Answer: Its GI50 is 0.0356 nM.

Question: What about the TGI [60] of the same molecule?
Answer: Its TGI is 0.00182 µM and < 0.215 µM.

Question: What about the GI50 [48] of the same molecule?
Answer: Its GI50 is less than 0.0155 µM.

Question: What about the TGI [48] of the same molecule?
Answer: The TGI was 0.0033 µM.
